The values that follow come from patent US20260226068A1, “IMIDAZOTRIAZINE IL-17A MODULATORS AND USES THEREOF” (DICE ALPHA, INC., priority 2023, published 2026).

One assay addresses T1, IL-17A/F (Homo sapiens, UniProt Q16552+Q96PD4).
T1 construct: purchased R&D Systems
T1 sequence (Q16552 24-155): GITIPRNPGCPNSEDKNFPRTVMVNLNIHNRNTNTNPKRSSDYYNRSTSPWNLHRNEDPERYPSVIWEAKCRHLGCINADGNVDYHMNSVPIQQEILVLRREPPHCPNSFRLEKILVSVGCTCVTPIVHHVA
T1 sequence (Q96PD4 31-163): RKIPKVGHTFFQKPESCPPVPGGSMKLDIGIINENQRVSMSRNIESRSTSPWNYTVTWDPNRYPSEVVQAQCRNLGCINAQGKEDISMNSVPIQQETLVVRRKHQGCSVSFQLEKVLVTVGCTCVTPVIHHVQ
Kind of assay: IL-17A/F HEK-Blue cell assay (SEAP reporter). Type of assay: cell-based. The settings on record: HEK-Blue IL-17A reporter cells, IL17A/F 5 ng/mL, 20 hours, SEAP read at A630; read-out: HEK-Blue IL17AF (IC50 for IL-17A/F inhibition).

For another assay, the target named is T2, IL-17A/A (Homo sapiens, UniProt Q16552).
T2 construct: purchased Genscript Z03228
T2 sequence (Q16552 24-155): T1 sequence (Q16552 24-155)
The experiment in a line: IL-17A/A HEK-Blue cell assay (SEAP reporter). The class given is cell-based. Conditions: HEK-Blue IL-17A reporter cells, IL17A/A 5 ng/mL, 20 hours, SEAP read at A630; read-out: HEK-Blue IL17AA (IC50 for IL-17A/A inhibition).

In the case of `CCn1nccc1C(=O)N[C@H](c1cn2nc(C[C@H]3C[C@@H](C(F)(F)F)CNC3=O)c(C3CCOCC3)nc2n1)C1CC2(C1)CC(F)(F)C2` [Compound 197], the IC50 is greater than 1 µM on IL-17A/F and less than 0.1 µM on IL-17A/A.

Turning to `CCn1nccc1C(=O)N[C@@H](c1cn2nc(C[C@H]3C[C@@H](C(F)(F)F)CNC3=O)c(C3CCOCC3)nc2n1)C1CC2CC2C1` (stereo partly shown) [Compound 198], the IC50 at IL-17A/F is 0.1 to 1 µM; at IL-17A/A, less than 0.1 µM.

Consider `CCn1nccc1C(=O)N[C@H](c1cn2nc(C[C@H]3C[C@@H](C(F)(F)F)CNC3=O)c(N3CCN(C)[C@@H](C)C3)nc2n1)C1CCC(F)(F)CC1` [Compound 200], for which the IC50 is 0.1 to 1 µM at IL-17A/F and less than 0.1 µM at IL-17A/A.

With `CCn1nccc1C(=O)N[C@H](c1cn2nc(C[C@H]3C[C@@H](C(F)(F)F)CNC3=O)c(N[C@H]3CC[C@@H](OC)CC3)nc2n1)C1CCC(F)(F)CC1` [Compound 201], the IC50 on IL-17A/F was 0.1 to 1 µM; at IL-17A/A, less than 0.1 µM.

Regarding `CCn1nccc1C(=O)N[C@H](c1cn2nc(C[C@H]3C[C@@H](C(F)(F)F)CNC3=O)c(C(C)C)nc2n1)[C@H]1CCCC(F)(F)C1` [Compound 205, N-((1S)—((S)-3,3-difluorocyclohexyl)(3-isopropyl-2-(((3R,5R)-2-oxo-5-(trifluoromethyl)piperidin-3-yl)methyl)imidazo[1,2-b][1,2,4]triazin-6-yl)methyl)-1-ethyl-1H-pyrazole-5-carboxamide], the IC50 at IL-17A/F and at IL-17A/A was less than 0.1 µM throughout.

For the compound `CCn1nccc1C(=O)N[C@H](c1cn2nc(C[C@H]3C[C@@H](C(F)(F)F)CNC3=O)c(C(C)C)nc2n1)[C@@H]1CCCC(F)(F)C1` [Compound 206, N-((1S)—((R)-3,3-difluorocyclohexyl)(3-isopropyl-2-(((3R,5R)-2-oxo-5-(trifluoromethyl)piperidin-3-yl)methyl)imidazo[1,2-b][1,2,4]triazin-6-yl)methyl)-1-ethyl-1H-pyrazole-5-carboxamide], the IC50 was 0.1 to 1 µM at IL-17A/F and less than 0.1 µM on IL-17A/A.

For the compound `CC(C)n1nccc1C(=O)N[C@H](c1cn2nc(C[C@H]3C[C@@H](C(F)(F)F)CNC3=O)c(C3CCOCC3)nc2n1)[C@H]1CCCC(F)(F)C1` [Compound 211, N-((1S)—((S)-3,3-difluorocyclohexyl)(2-(((3R,5R)-2-oxo-5-(trifluoromethyl)piperidin-3-yl)methyl)-3-(tetrahydro-2H-pyran-4-yl)imidazo[1,2-b][1,2,4]triazin-6-yl)methyl)-1-isopropyl-1H-pyrazole-5-carboxamide], the IC50 at IL-17A/F and on IL-17A/A was less than 0.1 µM each time.

As for `CCn1nccc1C(=O)N[C@H](c1cn2nc(C[C@H]3C[C@@H](C(F)(F)F)CNC3=O)c(C3(F)CCOCC3)nc2n1)C1CCC(F)(F)CC1` [Compound 212, N-((1S)-(4,4-difluorocyclohexyl)(3-(4-fluorotetrahydro-2H-pyran-4-yl)-2-(((3R,5R)-2-oxo-5-(trifluoromethyl)piperidin-3-yl)methyl)imidazo[1,2-b][1,2,4]triazin-6-yl)methyl)-1-ethyl-1H-pyrazole-5-carboxamide], the IC50 on IL-17A/F was 0.1 to 1 µM; on IL-17A/A, less than 0.1 µM.

Take `CCn1nccc1C(=O)N[C@H](c1cn2nc(C[C@H]3C[C@@H](C(F)(F)F)CNC3=O)c(CC3CCCOC3)nc2n1)C1CCC(F)(F)CC1` (stereo partly drawn) [Compound 213, N-((1S)-(4,4-difluorocyclohexyl)(2-(((3R,5R)-2-oxo-5-(trifluoromethyl)piperidin-3-yl)methyl)-3-((tetrahydro-2H-pyran-3-yl)methyl)imidazo[1,2-b][1,2,4]triazin-6-yl)methyl)-1-ethyl-1H-pyrazole-5-carboxamide]: the results for the IC50 at IL-17A/F and at IL-17A/A were 0.1 to 1 µM and less than 0.1 µM, respectively.

For `CCn1nccc1C(=O)N[C@H](c1cn2nc(C[C@H]3C[C@@H](C(F)(F)F)CNC3=O)c(C(C)C(F)(F)F)nc2n1)C1CCC(F)(F)CC1` (stereo partly drawn) [Compound 214, N-((1S)-(4,4-difluorocyclohexyl)(2-(((3R,5R)-2-oxo-5-(trifluoromethyl)piperidin-3-yl)methyl)-3-(1,1,1-trifluoropropan-2-yl)imidazo[1,2-b][1,2,4]triazin-6-yl)methyl)-1-ethyl-1H-pyrazole-5-carboxamide], the IC50 is 0.1 to 1 µM at IL-17A/F and less than 0.1 µM at IL-17A/A.

For the compound `C=CCCc1nc2nc([C@@H](NC(=O)c3ccnn3CC)C3CCC(F)(F)CC3)cn2nc1C[C@H]1C[C@@H](C(F)(F)F)CNC1=O` [Compound 215, N-((1S)-(3-(but-3-en-1-yl)-2-(((3R,5R)-2-oxo-5-(trifluoromethyl)piperidin-3-yl)methyl)imidazo[1,2-b][1,2,4]triazin-6-yl)(4,4-difluorocyclohexyl)methyl)-1-ethyl-1H-pyrazole-5-carboxamide], the values for the IC50 at IL-17A/F and at IL-17A/A were 0.1 to 1 µM and less than 0.1 µM, respectively.

As for `CCn1nccc1C(=O)N[C@H](c1cn2nc(C[C@H]3C[C@@H](C(F)(F)F)CNC3=O)c(C(C)(C)F)nc2n1)C1CCC(F)(F)CC1` [Compound 216, N-((1S)-(4,4-difluorocyclohexyl)(3-(2-fluoropropan-2-yl)-2-(((3R,5R)-2-oxo-5-(trifluoromethyl)piperidin-3-yl)methyl)imidazo[1,2-b][1,2,4]triazin-6-yl)methyl)-1-ethyl-1H-pyrazole-5-carboxamide], the IC50 was 0.1 to 1 µM at IL-17A/F and less than 0.1 µM on IL-17A/A.

Take `Cn1nccc1C(=O)N[C@H](c1cn2nc(C[C@H]3C[C@@H](C(F)(F)F)CNC3=O)c(C3CCOCC3)nc2n1)[C@H]1CC[C@H](C)CC1` [Compound 218, 1-methyl-N—((S)-((1r,4S)-4-methylcyclohexyl)(2-(((3R,5R)-2-oxo-5-(trifluoromethyl)piperidin-3-yl)methyl)-3-(tetrahydro-2H-pyran-4-yl)imidazo[1,2-b][1,2,4]triazin-6-yl)methyl)-1H-pyrazole-5-carboxamide]: the IC50 at IL-17A/F and on IL-17A/A was less than 0.1 µM each time.

In the case of `CCn1nccc1C(=O)N[C@H](c1cn2nc(C[C@H]3C[C@H](C)CNC3=O)c(C3CCOCC3)nc2n1)C1CCC(F)(F)CC1` [Compound 219], the IC50 on IL-17A/F was 0.1 to 1 µM; at IL-17A/A, less than 0.1 µM.

As for `CCn1nccc1C(=O)N[C@H](c1cn2nc(C[C@@H]3C[C@H](C)CNC3=O)c(C3CCOCC3)nc2n1)C1CCC(F)(F)CC1` [Compound 220], the IC50 on IL-17A/F is 0.1 to 1 µM; on IL-17A/A, less than 0.1 µM.

Take `CCc1nonc1C(=O)N[C@H](c1cn2nc(C[C@H]3C[C@@H](C(F)(F)F)CNC3=O)c(C3CCOCC3)nc2n1)C1CCCCC1` [Compound 221, N—((S)-cyclohexyl(2-(((3R,5R)-2-oxo-5-(trifluoromethyl)piperidin-3-yl)methyl)-3-(tetrahydro-2H-pyran-4-yl)imidazo[1,2-b][1,2,4]triazin-6-yl)methyl)-4-ethyl-1,2,5-oxadiazole-3-carboxamide]: the IC50 on IL-17A/F is 0.1 to 1 µM; on IL-17A/A, less than 0.1 µM.

Take `CCn1nccc1C(=O)N[C@H](c1cn2nc(C[C@@H]3CC(F)(F)CNC3=O)c(C3CCOCC3)nc2n1)C1CCC(F)(F)CC1` [Compound 222]: the IC50 on IL-17A/F is greater than 1 µM; on IL-17A/A it was less than 0.1 µM.

Regarding `CCn1nccc1C(=O)N[C@H](c1cn2nc(C[C@@H]3CC(F)(F)CNC3=O)c(C3CCOCC3)nc2n1)[C@H]1CC[C@H](C)CC1` [Compound 223], the IC50 on IL-17A/F was 0.1 to 1 µM; at IL-17A/A, less than 0.1 µM.

As to `CCn1nccc1C(=O)N[C@H](c1cn2nc(C[C@H]3C[C@@H](C(F)(F)F)CNC3=O)c(C3CCCN(CCOC)C3)nc2n1)C1CCC(F)(F)CC1` (stereo partly drawn) [Compound 226, N-((1S)-(4,4-difluorocyclohexyl)(3-(1-(2-methoxyethyl)piperidin-3-yl)-2-(((3R,5R)-2-oxo-5-(trifluoromethyl)piperidin-3-yl)methyl)imidazo[1,2-b][1,2,4]triazin-6-yl)methyl)-1-ethyl-1H-pyrazole-5-carboxamide], the figures for the IC50 at IL-17A/F and on IL-17A/A were greater than 1 µM and less than 0.1 µM, respectively.

Regarding `Cn1ncnc1C(=O)N[C@H](c1cn2nc(C[C@H]3C[C@@H](C(F)(F)F)CNC3=O)c(C3CCOCC3)nc2n1)C1CCC(F)(F)CC1` [Compound 228], the IC50 at IL-17A/F is greater than 1 µM; at IL-17A/A it was less than 0.1 µM.

For the compound `CCn1nccc1C(=O)N[C@H](c1cn2nc(C[C@H]3C[C@@H](C(F)(F)F)CNC3=O)c(C3CCCCN3C)nc2n1)C1CCC(F)(F)CC1` (stereo partly shown) [Compound 230], the figures for the IC50 on IL-17A/F and on IL-17A/A were greater than 1 µM and 0.1 to 1 µM, respectively.

For `CCn1nccc1C(=O)N[C@H](c1cn2nc(C[C@H]3C[C@@H](C(F)(F)F)CNC3=O)c(C3CCS(=O)(=O)CC3)nc2n1)C1CCC(F)(F)CC1` [Compound 234, N—((S)-(4,4-difluorocyclohexyl)(3-(1,1-dioxidotetrahydro-2H-thiopyran-4-yl)-2-(((3R,5R)-2-oxo-5-(trifluoromethyl)piperidin-3-yl)methyl)imidazo[1,2-b][1,2,4]triazin-6-yl)methyl)-1-ethyl-1H-pyrazole-5-carboxamide], the figures for the IC50 at IL-17A/F and at IL-17A/A were 0.1 to 1 µM and less than 0.1 µM, respectively.

Turning to `CCn1nccc1C(=O)N[C@H](c1cn2nc(C[C@H]3C[C@@H](C(F)(F)F)CNC3=O)c(N3CCOC[C@H]3C)nc2n1)C1CCC(F)(F)CC1` [Compound 236], the IC50 on IL-17A/F is 0.1 to 1 µM; at IL-17A/A, less than 0.1 µM.
